# Numbered stars: 1 amine (or outer) side, 2 acyl side, 3 side chain; on linkers, the order of the positions; unused ones are H or OH. Square brackets hold non-standard residues; d marks the D form. Side chains are listed from the residue outwards. Peptide text beside a SMILES is read from it. * marks the point of attachment. C20 diacid = O=C(O)CCCCCCCCCCCCCCCCCCC(=O)*; αMePhe(2-F) = C[C@](N)(Cc1ccccc1F)C(=O)O; C16 diacid = O=C(O)CCCCCCCCCCCCCCC(=O)*; γGlu = O=C(O)[C@H](CCC(=O)[*:2])N[*:1]; αMeF = C[C@](N)(Cc1ccccc1)C(=O)O; αMeL = CC(C)C[C@](C)(N)C(=O)O; AEEA = NCCOCCOCC(=O)O; Aib = CC(C)(N)C(=O)O
# Key:
# [1] = biological target: human GLP-1 receptor (GLP-1R) (Homo sapiens, UniProt P43220); assay: cAMP pharmacological functional assay in presence of casein, hGLP-1R; type: cell-based; settings: HEK293 cells expressing hGLP-1R, 0.1% Casein, geometric mean; read-out: hGLP1R cAMP Rel EC50 nM (SEM, n)
# human GIP receptor = biological target: T1, human GIP receptor (Homo sapiens, UniProt P48546); assay: [125I]-GIP binding (SPA), human GIP receptor; settings: read-out: hGIPR Ki, nM (SEM, n)
# T1 construct: expressed in transfected cells; crude membranes
# T1 sequence (P48546 22-466): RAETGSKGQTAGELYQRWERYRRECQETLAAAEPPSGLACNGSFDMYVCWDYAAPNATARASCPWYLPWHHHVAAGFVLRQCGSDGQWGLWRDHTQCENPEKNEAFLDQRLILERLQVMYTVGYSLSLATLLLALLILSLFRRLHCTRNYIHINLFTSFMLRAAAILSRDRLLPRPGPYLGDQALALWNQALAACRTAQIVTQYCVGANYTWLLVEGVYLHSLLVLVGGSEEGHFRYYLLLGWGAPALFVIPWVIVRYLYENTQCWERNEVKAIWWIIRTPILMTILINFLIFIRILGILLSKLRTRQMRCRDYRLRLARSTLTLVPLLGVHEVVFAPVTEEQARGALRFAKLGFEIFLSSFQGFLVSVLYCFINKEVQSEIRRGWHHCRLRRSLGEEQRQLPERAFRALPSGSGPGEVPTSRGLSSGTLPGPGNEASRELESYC
# [2] = biological target: T2, gastric inhibitory peptide receptor (GIPR) (Homo sapiens, UniProt P48546); assay: cAMP pharmacological functional assay in presence of casein, hGIPR; type: cell-based; settings: HEK293 cells expressing hGIPR, 0.1% Casein, geometric mean; read-out: hGIPR cAMP Rel EC50 nM (SEM, n)
# T2 sequence (P48546 22-466): T1 sequence (P48546 22-466)
# human Gcg receptor = biological target: T3, human Gcg receptor (Homo sapiens, UniProt P47871); assay: [125I]-Glucagon binding (SPA), human Gcg receptor; settings: read-out: hGLcgR Ki, nM (SEM, n)
# T3 construct: expressed in transfected cells; crude membranes
# In short: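 Crude membranes from cells expressing the receptor, prepared by hypotonic lysis in 50 mM Tris HCl pH 7.5 with protease inhibitors, homogenization and differential centrifugation, were used in a WGA-bead SPA. Binding buffer: 25 mM HEPES pH 7.4, 2.5 mM CaCl2, 1 mM MgCl2, bacitracin, Tween-20.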
# human GLP-1R = human GLP-1R (Homo sapiens, UniProt P43220); assay: [125I]-GLP-1 binding (SPA), human GLP-1 receptor; set-up: expressed in transfected cells; crude membranes; settings: read-out: hGLP1R Ki, (nM) (SEM, n)
# In short: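 Membranes: hypotonic lysis (50 mM Tris HCl, pH 7.5, protease inhibitors), Potter-Elvehjem homogenization, high-speed pellet (35000×g 1 h or 25000×g 30 min, 4° C.). Buffer: 25 mM HEPES pH 7.4, 2.5 mM CaCl2, 1 mM MgCl2. Four-parameter IC50 fit; Ki as geometric mean ± SEM.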
# T3 sequence (P47871 26-477): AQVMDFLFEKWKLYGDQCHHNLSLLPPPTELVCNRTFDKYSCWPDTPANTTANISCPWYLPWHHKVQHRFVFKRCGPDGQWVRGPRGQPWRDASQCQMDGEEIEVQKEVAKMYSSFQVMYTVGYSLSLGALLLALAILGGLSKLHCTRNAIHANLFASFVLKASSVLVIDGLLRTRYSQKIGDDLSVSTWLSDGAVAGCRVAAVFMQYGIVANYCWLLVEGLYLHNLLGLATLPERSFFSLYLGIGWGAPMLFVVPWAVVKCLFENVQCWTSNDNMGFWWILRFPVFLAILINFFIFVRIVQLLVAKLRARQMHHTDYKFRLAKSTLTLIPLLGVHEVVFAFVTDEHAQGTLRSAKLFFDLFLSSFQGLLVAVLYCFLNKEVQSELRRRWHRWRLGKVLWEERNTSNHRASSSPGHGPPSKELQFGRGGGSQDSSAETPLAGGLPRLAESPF
# Sequence of human GLP-1R (P43220 24-463): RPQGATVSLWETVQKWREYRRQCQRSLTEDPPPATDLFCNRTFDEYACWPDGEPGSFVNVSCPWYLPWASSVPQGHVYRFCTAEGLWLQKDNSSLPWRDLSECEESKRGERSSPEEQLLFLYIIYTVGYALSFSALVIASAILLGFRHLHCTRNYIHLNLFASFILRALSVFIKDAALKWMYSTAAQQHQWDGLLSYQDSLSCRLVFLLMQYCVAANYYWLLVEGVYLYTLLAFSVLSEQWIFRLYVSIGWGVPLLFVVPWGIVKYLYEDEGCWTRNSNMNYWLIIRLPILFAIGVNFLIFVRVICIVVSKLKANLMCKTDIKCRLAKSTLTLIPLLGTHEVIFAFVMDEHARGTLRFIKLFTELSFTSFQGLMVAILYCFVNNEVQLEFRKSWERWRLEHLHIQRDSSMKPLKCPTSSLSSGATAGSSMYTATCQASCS
# Sequence of human GLP-1 receptor (GLP-1R) (P43220 24-463): as above
SMILES,EC50 [1] [nM],Ki (human GIP receptor) [nM],EC50 [2] [nM],Ki (human Gcg receptor) [nM],Ki (human GLP-1R) [nM]
CC[C@H](C)[C@H](NC(=O)[C@H](CC(C)C)NC(=O)[C@H](Cc1ccc(O)cc1)NC(=O)[C@@H](CCC(=O)O)NC(=O)[C@@H](NC(=O)[C@H](Cc1ccccc1)NC(=O)[C@H](CCC(=O)O)NC(=O)C(C)(C)NC(=O)[C@H](CCC(N)=O)NC(=O)[C@H](C)NC(=O)[C@H](CCCCNC(=O)COCCOCCNC(=O)COCCOCCNC(=O)CC[C@H](NC(=O)CCCCCCCCCCCCCCC(=O)O)C(=O)O)NC(=O)[C@H](CCC(=O)O)NC(=O)[C@H](CC(=O)O)NC(=O)[C@H](CC(C)C)NC(=O)[C@](C)(CC(C)C)NC(=O)[C@@H](NC(=O)[C@H](CO)NC(=O)[C@H](Cc1ccc(O)cc1)NC(=O)[C@H](CC(=O)O)NC(=O)[C@H](CO)NC(=O)[C@@H](NC(=O)[C@](C)(Cc1ccccc1F)NC(=O)[C@@H](NC(=O)CNC(=O)[C@H](CCC(=O)O)NC(=O)C(C)(C)NC(=O)[C@@H](N)Cc1ccc(O)cc1)[C@@H](C)O)[C@@H](C)O)[C@@H](C)CC)[C@@H](C)CC)C(=O)N[C@@H](CCC(=O)O)C(=O)NCC(=O)NCC(=O)N1CCC[C@H]1C(=O)N[C@@H](CO)C(=O)N[C@@H](CO)C(=O)NCC(=O)N[C@@H](C)C(=O)N1CCC[C@H]1C(=O)N1CCC[C@H]1C(=O)N1CCC[C@H]1C(=O)N[C@@H](CO)C(N)=O [Example 208] (H-Y[Aib]EGT[αMePhe(2-F)]TSDYSI[αMeL]LDEK([AEEA-AEEA-γGlu-C16 diacid])AQ[Aib]EFI[dE]YLIEGGPSSGAPPPS-NH2),0.0753,0.0537,0.0371,> 1060,2.13
CC[C@H](C)[C@H](NC(=O)[C@H](CC(C)C)NC(=O)[C@H](Cc1ccc(O)cc1)NC(=O)[C@H](CCC(=O)O)NC(=O)[C@@H](NC(=O)[C@H](Cc1ccccc1)NC(=O)[C@H](C)NC(=O)C(C)(C)NC(=O)[C@H](CCC(N)=O)NC(=O)[C@H](C)NC(=O)[C@H](CCCCNC(=O)COCCOCCNC(=O)COCCOCCNC(=O)CC[C@H](NC(=O)CCCCCCCCCCCCCCCCCCC(=O)O)C(=O)O)NC(=O)[C@H](CCC(=O)O)NC(=O)[C@H](CC(=O)O)NC(=O)[C@H](CC(C)C)NC(=O)[C@](C)(CC(C)C)NC(=O)[C@@H](NC(=O)[C@H](CO)NC(=O)[C@H](Cc1ccc(O)cc1)NC(=O)[C@H](CC(=O)O)NC(=O)[C@H](CO)NC(=O)[C@@H](NC(=O)[C@](C)(Cc1ccccc1)NC(=O)[C@@H](NC(=O)CNC(=O)[C@H](CCC(=O)O)NC(=O)C(C)(C)NC(=O)[C@@H](N)Cc1ccc(O)cc1)[C@@H](C)O)[C@@H](C)O)[C@@H](C)CC)[C@@H](C)CC)C(=O)N[C@@H](CCC(=O)O)C(=O)NCC(=O)NCC(=O)N1CCC[C@H]1C(=O)N[C@@H](CO)C(=O)N[C@@H](CO)C(=O)NCC(=O)N[C@@H](C)C(=O)N1CCC[C@H]1C(=O)N1CCC[C@H]1C(=O)N1CCC[C@H]1C(=O)N[C@@H](CO)C(N)=O [Example 115] (H-Y[Aib]EGT[αMeF]TSDYSI[αMeL]LDEK([AEEA-AEEA-γGlu-C20 diacid])AQ[Aib]AFIEYLIEGGPSSGAPPPS-NH2),0.088,0.0302,0.102,9.89,3.43
CC[C@H](C)[C@H](NC(=O)[C@H](CC(C)C)NC(=O)[C@H](Cc1ccc(O)cc1)NC(=O)[C@@H](CCC(=O)O)NC(=O)[C@@H](NC(=O)[C@H](Cc1ccccc1)NC(=O)[C@H](CCC(=O)O)NC(=O)C(C)(C)NC(=O)[C@H](CCC(N)=O)NC(=O)[C@H](C)NC(=O)[C@H](CCCCNC(=O)COCCOCCNC(=O)COCCOCCNC(=O)CC[C@H](NC(=O)CCCCCCCCCCCCCCCCCCC(=O)O)C(=O)O)NC(=O)[C@H](CCC(=O)O)NC(=O)[C@H](CC(=O)O)NC(=O)[C@H](CC(C)C)NC(=O)[C@](C)(CC(C)C)NC(=O)[C@@H](NC(=O)[C@H](CO)NC(=O)[C@H](Cc1ccc(O)cc1)NC(=O)[C@H](CC(=O)O)NC(=O)[C@H](CO)NC(=O)[C@@H](NC(=O)[C@](C)(Cc1ccccc1)NC(=O)[C@@H](NC(=O)CNC(=O)[C@H](CCC(=O)O)NC(=O)C(C)(C)NC(=O)[C@@H](N)Cc1ccc(O)cc1)[C@@H](C)O)[C@@H](C)O)[C@@H](C)CC)[C@@H](C)CC)C(=O)N[C@@H](CCC(=O)O)C(=O)NCC(=O)NCC(=O)N1CCC[C@H]1C(=O)N[C@@H](CO)C(=O)N[C@@H](CO)C(=O)NCC(=O)N[C@@H](C)C(=O)N1CCC[C@H]1C(=O)N1CCC[C@H]1C(=O)N1CCC[C@H]1C(=O)N[C@@H](CO)C(N)=O [Example 227] (H-Y[Aib]EGT[αMeF]TSDYSI[αMeL]LDEK([AEEA-AEEA-γGlu-C20 diacid])AQ[Aib]EFI[dE]YLIEGGPSSGAPPPS-NH2),0.0329,0.0146,0.0414,113,2.01
CC[C@H](C)[C@H](NC(=O)[C@H](CC(C)C)NC(=O)[C@H](Cc1ccc(O)cc1)NC(=O)[C@H](CCC(=O)O)NC(=O)[C@@H](NC(=O)[C@H](Cc1ccccc1)NC(=O)[C@H](C)NC(=O)C(C)(C)NC(=O)[C@H](CCC(N)=O)NC(=O)[C@H](C)NC(=O)[C@H](CCCCNC(=O)COCCOCCNC(=O)COCCOCCNC(=O)CC[C@H](NC(=O)CCCCCCCCCCCCCCCCCCC(=O)O)C(=O)O)NC(=O)[C@H](CCCCN)NC(=O)[C@H](CC(=O)O)NC(=O)[C@H](CC(C)C)NC(=O)[C@H](CC(C)C)NC(=O)[C@@H](NC(=O)[C@H](CO)NC(=O)[C@@H](NC(=O)[C@H](CC(=O)O)NC(=O)[C@H](CO)NC(=O)[C@@H](NC(=O)[C@](C)(Cc1ccccc1)NC(=O)[C@@H](NC(=O)CNC(=O)[C@H](CCC(=O)O)NC(=O)C(C)(C)NC(=O)[C@@H](N)Cc1ccc(O)cc1)[C@@H](C)O)[C@@H](C)O)[C@@H](C)CC)[C@@H](C)CC)[C@@H](C)CC)C(=O)N[C@@H](CCC(=O)O)C(=O)NCC(=O)NCC(=O)N1CCC[C@H]1C(=O)N[C@@H](CO)C(=O)N[C@@H](CO)C(=O)NCC(=O)N[C@@H](C)C(=O)N1CCC[C@H]1C(=O)N1CCC[C@H]1C(=O)N1CCC[C@H]1C(=O)N[C@@H](CO)C(N)=O [Example 127] (H-Y[Aib]EGT[αMeF]TSDISILLDKK([AEEA-AEEA-γGlu-C20 diacid])AQ[Aib]AFIEYLIEGGPSSGAPPPS-NH2; N-terminus assumed),0.145,0.126,0.158,43.6,1.86
CC[C@H](C)[C@H](NC(=O)[C@H](CC(C)C)NC(=O)[C@H](Cc1ccc(O)cc1)NC(=O)[C@H](CCC(=O)O)NC(=O)[C@@H](NC(=O)[C@H](Cc1ccccc1)NC(=O)[C@H](CCC(=O)O)NC(=O)C(C)(C)NC(=O)[C@H](CCC(N)=O)NC(=O)[C@H](C)NC(=O)[C@H](CCCCNC(=O)COCCOCCNC(=O)COCCOCCNC(=O)CC[C@H](NC(=O)CCCCCCCCCCCCCCCCCCC(=O)O)C(=O)O)NC(=O)[C@H](CCC(=O)O)NC(=O)[C@H](CC(=O)O)NC(=O)[C@H](CC(C)C)NC(=O)[C@](C)(CC(C)C)NC(=O)[C@@H](NC(=O)[C@H](CO)NC(=O)[C@H](Cc1ccc(O)cc1)NC(=O)[C@H](CC(=O)O)NC(=O)[C@H](CO)NC(=O)[C@@H](NC(=O)[C@](C)(Cc1ccccc1)NC(=O)[C@@H](NC(=O)CNC(=O)[C@H](CCC(=O)O)NC(=O)C(C)(C)NC(=O)[C@@H](N)Cc1ccc(O)cc1)[C@@H](C)O)[C@@H](C)O)[C@@H](C)CC)[C@@H](C)CC)C(=O)N[C@@H](CCC(=O)O)C(=O)NCC(=O)NCC(=O)N1CCC[C@H]1C(=O)N[C@@H](CO)C(=O)N[C@@H](CO)C(=O)NCC(N)=O [Example 124] (H-Y[Aib]EGT[αMeF]TSDYSI[αMeL]LDEK([AEEA-AEEA-γGlu-C20 diacid])AQ[Aib]EFIEYLIEGGPSSG-NH2),0.0475,0.0424,0.0762,41.5,4.87

# Source: patent publication US12252524B2, “GIP/GLP1 co-agonist compounds” (Eli Lilly and Company, priority 2018, dated 2025)
